Test results as given in US20250051321A1, “TRICYCLIC DERIVATIVE AND PREPARATION METHOD THEREFOR AND APPLICATION THEREOF” (SHANGHAI JEMINCARE PHARMACEUTICAL CO., LTD., priority 2021, published 2025).
Where two headings read alike, the source gives them in different places.

Legend:
[1] = tested on: plasma LPA 18:1 and LPA 18:2; assay: Human plasma ex vivo assay (LPA 18:1 / 18:2 by LC-MS/MS); type: biochemical; conditions: 37° C., 2 hours
Experimental: The collected plasma was centrifuged at 4000 rpm for 15 minutes at 4° C. The supernatant was aliquoted into a 96-well plate (25 μL per well), sealed, and frozen at −80° C. for further use.
LPA 17:0 powder was dissolved in a mixed solution of water: isopropanol: formic acid (1:1:1) to a final concentration of […]. The mixture was aliquoted and frozen at −20° C.
1 volume of formic acid was added to 1000× methanol, mixed well, and stored at 4° C. a) The 96-well plate containing frozen plasma was removed from the −80° C. freezer and thawed on ice at room temperature. b) 6 μL of 50× LPA 17:0 (internal standard) and 264 μL of 0.1% FA were added to a clean well of the 96-well plate; the final concentration of LPA 17:0 (internal standard) was 50 nM. c) 6× compound was 1:3 serially diluted to a total of 8 concentrations, and 5 μL of the compound per well was added to the 96-well plate containing plasma. The maximum final concentration of the compound was 10 μM, and the final concentration of DMSO was 0.1%. The plate was centrifuged at 300 rpm for 30 seconds. The DMSO control sample reacted for 0 hours was used as the minimum value (Min), and the DMSO control sample reacted for 2 hours was used as the maximum value (Max). […]
d) The DMSO sample reacted for 0 hours was rapidly transferred to 0.1% FA solution containing the internal standard in step b) to terminate the reaction and precipitate plasma proteins. e) The 96-well plate containing plasma and compounds was rapidly incubated in a 37° C. incubator for 2 hours. After the incubation, 6 μL of 10× LPA 17:0 and 264 μL of 0.1% FA were added to each well to terminate the reaction and precipitate plasma proteins. […]
f) All the samples were mixed well with a pipette, and centrifuged at 4000 rpm for 10 minutes at 4° C. 150 μL of the supernatant was added to a 96-well U-bottom plate (Thermo 267245), sealed with silica gel, and then loaded. The contents of LPA 18:1 and LPA 18:2 in the samples were detected by LC-MS/MS system.
LPA 18:1(or 18:2) relative content=LPA 18:1(or 18:2) peak area/LPA 17:0 peak area Percentage reduction (%) in plasma LPA18:1(or 18:2)=(Max−X)/(Max−Min)*100 Max: LPA 18:1 (or 18:2) relative content of the DMSO sample reacted for 2 hours Min: LPA 18:1 (or 18:2) relative content of the DMSO sample reacted for 0 hours X: LPA 18:1 (or 18:2) relative content of the sample after compound treatment for 2 hours The IC50 of the compounds was calculated by fitting a nonlinear regression through percentage reduction in plasma LPA 18:1 (or 18:2) and log value of compound concentration using the software GraphPad Prism 8.
Y=Bottom+(Top−Bottom)/(1+10^((Log IC50−X)*Hill Slope))

[2] = target: ATX (Homo sapiens (Human), UniProt Q13822); assay: ATX enzyme inhibition assay (Amplex UltraRed/choline oxidase/HRP, 16:0 Lyso PC substrate); type: biochemical
Experimental: All compounds were prepared as a 10 mM DMSO stock solution.
Solutions at pH 8.5 and pH 7.5 were prepared respectively with the following formulations:
All compounds, including the positive control compound, were diluted 5-fold from 10 mM to 2 mM with DMSO in the first step. The mixture was then diluted to 100 μM with 1× assay buffer.
3. Separate Detection of Compounds with 1× Assay Buffer at Two pH Values:
a) 5 μL of 10× compound diluent was added to a 384-well plate (Greiner 781209) using a motorized pipette (see the “experimental preparation” step). 5 μL of 1× assay buffer containing 5% DMSO was added to both negative and positive control wells. The plate was centrifuged at 300 rpm for 1 minute at room temperature.
b) 2× ATX ([…]) was prepared with 1× assay buffer, and 25 μL of 2× ATX was added to the plate using a motorized pipette. 25 μL of 1× assay buffer was added to the negative control wells and 25 μL of 2× ATX was added to the positive control wells. The plate was centrifuged at 300 rpm for 1 minute at room temperature.
The plate was incubated at room temperature for 10 minutes.
c) 2.5× working solution containing Amplex UltraRed reagent (125 μM), HRP (2.5 U/mL), choline oxidase (1.25 U/mL), and 16:0 Lyso PC (75 μM) was prepared with 1× assay buffer. 20 μL of 2.5× working solution was added to all reaction wells using a motorized pipette. The plate was centrifuged at 300 rpm for 1 minute at room temperature.
d) The plate was detected by SpectraMax with the following procedures: fluorescence mode; excitation at 550 nm; emission at 590 nm; kinetics; read once every 2 minutes; read continuously for 60 minutes.
The calculation formula of % inhibition (i.e., % inhibition rate) was as follows: […]
V0: X-axis is taken as 0 to 30 minutes, Y-axis is taken as fluorescence readings, and the slope corresponding to the straight line fitted by the software GraphPad Prism 8 is the initial response rate.
V0max: Average V0 of the positive control wells in the plate.
V0min: Average V0 of the negative control wells in the plate.
The IC50 of the compounds was calculated from a nonlinear regression line (dose-initial response rate) fitted by % inhibition and log value of compound concentration using the software GrahPad Prism 8.

[3] = LPA 18:1, read-out: Human plasma ex vivo assay IC50 (18:1 LPA)
[4] = LPA 18:2, read-out: Human plasma ex vivo assay IC50 (18:2 LPA)
[5] = assay buffer pH 7.5, read-out: IC50 (nM) pH 7.5
[6] = assay buffer pH 8.5, read-out: IC50 (nM) pH 8.5

Row | IC50 [1, 3] [nM] | IC50 [1, 4] [nM] | IC50 [2, 5] [nM] | IC50 [2, 6] [nM] | Structure (SMILES)
1 | 192 | 157 | 559 | 60.7 | CN(c1nc(-c2ccc(F)cc2)c(C#N)s1)c1c2c(nc3ccc(N4CCN(CC(=O)N5CC(O)C5)CC4)nc13)CCC2 [Example A10]
2 | 299 | 359 | 1180 | 145 | CN(c1nc(-c2ccc(F)cc2)c(C#N)s1)c1c2c(nc3c(F)cc(N4CC5(CCN(CC(=O)N6CC(O)C6)CC5)C4)cc13)CCC2 [Example A11]
3 | 64.5 | 91.6 | 219 | 22.3 | CN(c1nc(-c2ccc(F)cc2)c(C#N)s1)c1c2c(nc3ccc(N4CCN(CC(=O)N5CC(O)C5)CC4)nc13)CCO2 [Example A12]
4 | 304 | 338 | – | 228 | Cc1cc(N2CCN(CC(=O)N3CC(O)C3)CC2)cc2c(N(C)c3nc(-c4ccc(F)cc4)c(C#N)s3)c3c(nc12)CCC3 [Example A14]
5 | 286 | 341 | 282 | 75.7 | CN(c1nc(-c2ccc(F)cc2)c(C#N)s1)c1c2c(nc3c(F)cc(N4CCN(CC(=O)N5CC(F)C5)CC4)cc13)CCC2 [Example A16]
6 | 164 | 172 | – | 48.7 | CN(c1nc(-c2ccc(F)cc2)c(C#N)s1)c1c2c(nc3c(F)cc(N4CC5(CN(CC(=O)N6CC(O)C6)C5)C4)cc13)CC2 [Example A17]
7 | 162 | 192 | 228 | 61.1 | CN(c1nc(-c2ccc(F)cc2)c(C#N)s1)c1c2c(nc3c(F)cc(N4CC5(CN(CC(=O)N6CC(CO)C6)C5)C4)cc13)CC2 [Example A18]
8 | 118 | 132 | 413 | 52.7 | CN(c1nc(-c2ccc(F)cc2)c(C#N)s1)c1c2c(nc3c(F)cc(N4CCN(CC(=O)N5CC(O)C5)CC4)cc13)COC2 [Example A19]
9 | 170 | 203 | 645 | 84 | CN(c1nc(-c2ccc(F)cc2)c(C#N)s1)c1c2c(nc3cnc(N4CCN(CC(=O)N5CC(O)C5)CC4)cc13)CCC2 [Example A20]
10 | 70.2 | 55.9 | 125 | 23.7 | CN(c1nc(-c2ccc(F)cc2)c(C#N)s1)c1c2c(nc3ncc(N4CCN(CC(=O)N5CC(O)C5)CC4)cc13)CCC2 [Example A21]
11 | 466 | 486 | – | 181 | CN(c1nc(-c2ccc(F)cc2)c(C#N)s1)c1c2c(nc3c(F)cc(N4CC5(CN(CC(=O)N6CC(O)C6)C5)C4)cc13)COC2 [Example A24]
12 | 251 | 269 | 541 | 75 | CN(c1nc(-c2ccc(F)cc2)c(C#N)s1)c1c2c(nc3c(F)cc(N4CC5(CN(CC(=O)N6CC(CO)C6)C5)C4)cc13)CCC2 [Example A25]
13 | 176 | 169 | – | 112 | CN(c1nc(-c2ccc(F)cc2)c(C#N)s1)c1c2c(nc3ccc(N4CCN(S(C)(=O)=O)C[C@@H]4CO)cc13)CCC2 [Example B1]
14 | 177 | 201 | 141 | 58.8 | CN(c1nc(-c2ccc(F)cc2)c(C#N)s1)c1c2c(nc3ccc(N4CCN(S(C)(=O)=O)C[C@H]4CO)cc13)CCC2 [Example B2]
15 | 170 | 165 | 171 | 41.2 | CN(c1nc(-c2ccc(F)cc2)c(C#N)s1)c1c2c(nc3c(F)cc(N4CCN(S(C)(=O)=O)[C@H](CO)C4)cc13)CCC2 [Example B3]
16 | 219 | 253 | 611 | 66.5 | CN(c1nc(-c2ccc(F)cc2)c(C#N)s1)c1c2c(nc3c(F)cc(N4CCN(S(C)(=O)=O)[C@@H](CO)C4)cc13)CCC2 [Example B4]
17 | 402 | 365 | 41.6 | 23.8 | CN(c1nc(-c2ccc(F)cc2)c(C#N)s1)c1c2c(nc3c(F)cc(N4CC5(CN(C(=O)[C@@H]6CCOC6)C5)C4)cc13)CCC2 [Example C2]
18 | 141 | 135 | 32 | 22.7 | CN(c1nc(-c2ccc(F)cc2)c(C#N)s1)c1c2c(nc3ncc(N4CC5(CN(C(=O)[C@H]6CCOC6)C5)C4)cc13)CCC2 [Example C3]
19 | 114 | 89.2 | 38.6 | 27.4 | CN(c1nc(-c2ccc(F)cc2)c(C#N)s1)c1c2c(nc3ncc(N4CC5(CN(C(=O)[C@@H]6CCOC6)C5)C4)cc13)CCC2 [Example C4]
20 | 232 | 264 | 1230 | 196 | CN(c1nc(-c2ccc(F)cc2)c(C#N)s1)c1c2c(nc3c(F)cc(N4CCN(C(=O)[C@@H]5CCOC5)CC4)cc13)CCC2 [Example C6]
21 | 354 | 401 | 1140 | 193 | CN(c1nc(-c2ccc(F)cc2)c(C#N)s1)c1c2c(nc3c(F)cc(N4CCN(C(=O)[C@H]5CCOC5)CC4)cc13)CCC2 [Example C7]
22 | 216 | 234 | 78.5 | 23 | CN(c1nc(-c2ccc(F)cc2)c(C#N)s1)c1c2c(nc3c(F)cc(N4CC5(CCN(C(=O)[C@@H]6CCOC6)CC5)C4)cc13)CCC2 [Example C9]
23 | 147 | 134 | 33.6 | 18.6 | CN(c1nc(-c2ccc(F)cc2)c(C#N)s1)c1c2c(nc3ccc(N4CC5(CN(C(=O)[C@H]6CCOC6)C5)C4)nc13)CCO2 [Example C10]
24 | 292 | 347 | 82.2 | 52.6 | CN(c1nc(-c2ccc(F)cc2)c(C#N)s1)c1c2c(nc3c(F)cc(N4CC5(CN(C(=O)[C@H]6CCOC6)C5)C4)cc13)CCO2 [Example C12]
25 | 310 | 379 | 334 | 83.1 | CN(c1nc(-c2ccc(F)cc2)c(C#N)s1)c1c2c(nc3c(F)cc(N4CCC5(CCN(C(=O)[C@@H]6CCOC6)C5)C4)cc13)CCC2 (stereo partly shown) [Example C14]
26 | 285 | 326 | 232 | 60.6 | CN(c1nc(-c2ccc(F)cc2)c(C#N)s1)c1c2c(nc3c(F)cc(N4CCC5(CCN(C(=O)[C@@H]6CCOC6)CC5)C4)cc13)CCC2 [Example C15]
27 | 677 | 362 | – | 24.2 | CN(c1nc(-c2ccc(F)cc2)c(C#N)s1)c1c2c(nc3c(F)cc(N4CC5(CN(C(=O)C6(O)CCOCC6)C5)C4)cc13)COC2 [Example C20]
